Reference: paper PMC2964311, “The Human Host Defense Peptide LL-37 Interacts with Neisseria meningitidis Capsular Polysaccharides and Inhibits Inflammatory Mediators Release” (PLoS ONE, 2010)
Values after ≈ are worked out from the molar mass of the structure shown.

Assays:
[1] = test system: N. gonorrhoeae strain FA 19; conditions: N. gonorrhoeae FA19 (non-encapsulated); assays in triplicate
Experimental: The peptides were dissolved in 0.01 % (v/v) acetic acid and stored at −20°C prior to use. Antibacterial assays were performed as described previously and used N. gonorrhoeae strain FA 19. All assays were performed in triplicate and values are reported as the minimal inhibitory concentration (MIC).

THP-1 cells [2] = test: TNFα release from THP-1 cells induced with meningococcal CPS pre-incubated with peptide (ELISA); assay type: cell-based, human; conditions: THP-1 cells induced overnight with serogroup B CPS-lpxA pre-incubated with 2 µg/ml peptide, 30 min, 37°C; Figure 1A
Experimental: (§1) Human THP-1 (macrophage-like cells) and murine RAW 264.7 (TLR4-sufficient), 23ScCr (TLR4-deficient) and HEK-TLR2/6/CD14 stably transfected cell lines were stimulated with meningococcal CPS polymers with or without pre-incubation with LL-37 and its analogs (Table 1). CPS polymers were purified from the LPS-deficient serogroup B Neisseria meningitidis lpxA mutant as well as other meningococcal serogroups A, B, C, W135 and Y. Purified CPS samples were freshly dissolved in pyrogen-free sterile H2O at 1 mg/ml stock concentration and vortexed for 2 min. Working CPS concentrations (ranging from 100 µg/ml to 50 ng/ml) were made in duplicate wells using sterile PBS by serial fold dilutions in the 96-well tissue culture plates (Becton Dickinson, Franklin Lakes, NJ) at 50 µl final volumes. […] Freshly grown THP-1 cells and HEK-TLR2/6 transfected cells as well as murine macrophages, each adjusted to 10^6 cell/ml and 250 µl aliquots were dispensed into each well at final 250×10^3 cell density in the designated 96-well plates. The plates were incubated overnight at 37°C with 5% CO2 and humidity. Supernatants from stimulated cells were harvested and stored at −20°C until use.
(§2) The cytokines TNFα, IL-6 and CXCL10 (IP-10), released from THP-1 cells, and IL-8, released from HEK-TLR2 transfected cells stimulated with meningococcal CPS polymers, were quantified by DuoSet ELISA (R&D Systems) as previously described.

THP-1 cells [3] = test: IL-6 release from THP-1 cells induced with meningococcal CPS pre-incubated with peptide (ELISA); assay type: cell-based, human; conditions: THP-1 cells induced overnight with CPS-lpxA pre-incubated with 2 µg/ml peptide, 30 min, 37°C; Figure 1B
Experimental: as §1, with “Supernatants from stimulated cells were harvested and stored at −20°C until use.” left out
as §2

[4] = test system: HEK-TLR2/6 stably transfected cells; test: IL-8 release from HEK-TLR2/6 stably transfected cells induced with meningococcal CPS pre-incubated with peptide (ELISA); assay type: cell-based, human
Experimental: (§3) Human THP-1 (macrophage-like cells) and murine RAW 264.7 (TLR4-sufficient), 23ScCr (TLR4-deficient) and HEK-TLR2/6/CD14 stably transfected cell lines were stimulated with meningococcal CPS polymers with or without pre-incubation with LL-37 and its analogs (Table 1). CPS polymers were purified from the LPS-deficient serogroup B Neisseria meningitidis lpxA mutant as well as other meningococcal serogroups A, B, C, W135 and Y. Purified CPS samples were freshly dissolved in pyrogen-free sterile H2O at 1 mg/ml stock concentration and vortexed for 2 min. Working CPS concentrations (ranging from 100 µg/ml to 50 ng/ml) were made in duplicate wells using sterile PBS by serial fold dilutions in the 96-well tissue culture plates (Becton Dickinson, Franklin Lakes, NJ) at 50 µl final volumes. Cationic peptides (2, 4 or 8 µg/ml) or PBS equivalent volumes were added to designated wells and pre-incubated for 30 min at 37°C. Freshly grown THP-1 cells and HEK-TLR2/6 transfected cells as well as murine macrophages, each adjusted to 10^6 cell/ml and 250 µl aliquots were dispensed into each well at final 250×10^3 cell density in the designated 96-well plates. The plates were incubated overnight at 37°C with 5% CO2 and humidity. Supernatants from stimulated cells were harvested and stored at −20°C until use.
as §2

RAW 264.7 macrophages = test: Nitric oxide release from RAW 264.7 macrophages induced with meningococcal CPS (Griess method); assay type: cell-based, murine
Experimental: as §3
Freshly grown adherent RAW 246.7 or 23ScCr (TLR4-deficient) macrophages were harvested, washed and re-suspended in Dulbecco's complete media, counted and adjusted to 10^6 cell/ml. 250 µl aliquots were then dispensed into each well of a 96-well plate at final 250×10^3 cell density prior to stimulation with purified CPS polymers with or without cationic peptides. The induced RAW 264.7 or 23ScCr macrophages were incubated overnight at 37°C with 5% CO2 and supernatants were harvested and saved. Nitric oxide release was quantified using the Greiss chemical method as previously described.

[5] = test system: meningococcal CPS-lpxA polymers; test: Electrophoretic mobility shift assay (EMSA) of CPS complex with LL-37, CD14 and LBP; assay type: binding, Neisseria meningitidis; conditions: 5 µg LL-37, 0.5 µg rCD14, 0.5 µg rLBP, 3 h 37°C; 8% native PAGE, Western blot; Figure 8 lane 5
Experimental: To assess binding of CPS to LL-37 in the presence of human CD14 and LBP, an EMSA assay using native gel conditions was performed. Serogroup B CPS purified from a LOS-deficient meningococcal lpxA strain were dissolved in sterile H2O at 1 mg/ml concentration and 20 µl were transferred into an Eppendorf tube mixed with 10 µl (5 µg) of LL-37, 10 µl (0.5 µg) of human rCD14 and 10 µl (0.5 µg) of rLBP (R&D Systems) in […] and incubated for 3 h at 37°C. An aliquot of 7.5 µl of the mixed complexes were transferred into a new Eppendorf tube and mixed with an equal volume of sample buffer (0.1 M Tris-glycine buffer containing 20% glycerol and bromophenol blue) and 15 µl of the mixture were loaded on 8% native polyacrylamide gel electrophoresis (PAGE) without SDS as previously described. Electrophoresis was performed with Tris-glycine buffer pH 8.8 without SDS and run for 2 h at 4°C. The gel-shifting of CPS complexes was detected by Western blot method using biotinylated anti CD14 and anti LBP antibodies (R&D Systems) diluted 1∶1500× with blocking buffer.

TLR2 = test: Neutralization of the TLR2-mediated response induced by phospholipid extract PL-lpxA; assay type: cell-based; conditions: phospholipid extraction from LOS-deficient meningococci
[6] = test system: TLR4-sufficient and TLR4-deficient murine macrophages; test: CXCL10 (IP-10) release from murine macrophages induced with meningococcal CPS; assay type: cell-based
Experimental: as §3, with “The plates were incubated overnight at 37°C with 5% CO2 and humidity. Supernatants from stimulated cells were harvested and stored at −20°C until use.” left out
as §2

CC[C@H](C)[C@H](NC(=O)[C@H](CCCCN)NC(=O)[C@H](CCC(=O)O)NC(=O)[C@H](CCCCN)NC(=O)[C@H](CO)NC(=O)[C@H](CCCCN)NC(=O)[C@H](CCCNC(=N)N)NC(=O)[C@H](Cc1ccccc1)NC(=O)[C@H](Cc1ccccc1)NC(=O)[C@H](CC(=O)O)NC(=O)CNC(=O)[C@H](CC(C)C)NC(=O)[C@@H](N)CC(C)C)C(=O)NCC(=O)N[C@@H](CCCCN)C(=O)N[C@@H](CCC(=O)O)C(=O)N[C@@H](Cc1ccccc1)C(=O)N[C@@H](CCCCN)C(=O)N[C@@H](CCCNC(=N)N)C(=O)N[C@H](C(=O)N[C@H](C(=O)N[C@@H](CCC(N)=O)C(=O)N[C@@H](CCCNC(=N)N)C(=O)N[C@H](C(=O)N[C@@H](CCCCN)C(=O)N[C@@H](CC(=O)O)C(=O)N[C@@H](Cc1ccccc1)C(=O)N[C@@H](CC(C)C)C(=O)N[C@@H](CCCNC(=N)N)C(=O)N[C@@H](CC(N)=O)C(=O)N[C@@H](CC(C)C)C(=O)N[C@H](C(=O)N1CCC[C@H]1C(=O)N[C@@H](CCCNC(=N)N)C(=O)N[C@H](C(=O)N[C@@H](CCC(=O)O)C(=O)N[C@@H](CO)C(=O)O)[C@@H](C)O)C(C)C)[C@@H](C)CC)C(C)C)[C@@H](C)CC [LL-37]
MIC [1]: 7.8 µg/mL (≈ 1.74 µM) | TNFα release (THP-1 cells [2]): inhibited | IL-6 release (THP-1 cells [3]): inhibited | IL-8 release ([4]; HEK-TLR2/6 cells induced with CPS-lpxA pre-incubated with 2 µg/ml peptide, Figure 1C): inhibited | Neutralization of CPS-induced IL-8 release ([4]; HEK-TLR2/6 cells, serogroup A CPS pre-incubated with 4 µg/ml peptide, Figure 2A): neutralized | IL-8 release ([4]; HEK/TLR2/6 cells stimulated with different meningococcal CPS structures pre-incubated with LL-37): significant reduction in IL-8 release | IL-8 release induced by MAPS ([4]; HEK/TLR2/6 cells, vaccine grade serogroup A CPS (MAPS) pre-incubated with 2 µg/ml of LL-37, Figure 2B): significantly reduced | Nitric oxide release by CPS-lpxA complexes used in gel-shift (RAW 264.7 macrophages; RAW 264 macrophages, complexes with CD14, LBP and LL-37, data not shown): significant reduction in nitric oxide release | Cytokine release after pre-treatment of macrophages (RAW 264.7 macrophages; RAW 264 pre-treated with 10 µg/ml LL-37 for 30 min, washed, then CPS-lpxA 50 µg/ml, nitric oxide read-out, Figure S2): did not affect cytokine release | Nitric oxide release (RAW 264.7 macrophages; RAW 264.7 induced with CPS-lpxA pre-incubated with 2 µg/ml peptide, nitrite after 24 h, Figure 1D): inhibited | Gel-shift of CPS-lpxA-CD14-LBP complexes [5]: caused a gel-shift | Neutralization of biologic activity of PL-lpxA (TLR2): failed to neutralize | CXCL10 (IP-10) release [6]: inhibited
